# Assay results: patent US20070292478A1 (priority 2004, published 2007)
# Tests used:
# [1] = maximal tolerated dose of Rhodamine 123 delivered intravenously in man; type: in vivo; conditions: 70 kg patient, each injection
# Protocol: Because inhibitors of oxidative phosphorylation are toxic to a subject in the doses needed for efficacy via the systemic route, such inhibitors have been largely overlooked for effective treatment of conditions such as cancer. […] It is also known that the maximal tolerated dose of Rhodamine 123 delivered intravenously in man is 95 mg/m^2. For a 70 kg patient, the tolerated dose of systemically delivered rhodamine is about 150 mg for each injection.
# [2] = system: prostate tumours; conditions: clinical trial, cited from earlier work
# [3] = system: tumour; test: local delivery of rhodamine on an implant; type: in vivo; conditions: delivering 40 or 50 mg locally on implant
# Description: Furthermore, the lethal dose can be greatly exceeded. […] Such a dose, delivered systemically, would require 100 g of rhodamine, more than 1000 times the lethal dose.
substance,measurement,setting,value
rhodamine,tolerated dose of systemically delivered rhodamine,[1],about 150 mg
same,effect on prostate tumours,[2]; maximum non-lethal systemic doses,did not shown any significant effect
same,accumulation in the prostate of the patients,[2]; systemic delivery,accumulation was confirmed
same,tumour outcome,[3],leads to tumour death
